What was measured:
[1] = in vivo; cited from earlier work
[2] = in vivo; cited from earlier work; remark: listed apart in the source
[3] = test system: cancer cells (in cancer tissue sections); experiment: fermentation metabolism of cancer cells with different sugars as food substrate (Warburg); type: cell-based; details: sugar as food substrate
Text: On the other hand, tests carried out by the Nobel prizewinner Otto Heinrich Warburg have shown that the fermentation metabolism of cancer cells (in cancer tissue sections) progresses most effectively with glucose as a food substrate, specifically at a rate of 23.9 consumed units per unit of time, whereas, with the substrate fructose, it progresses less effectively by a factor of 7 (rate 3.3), and, with galactose, progresses even less effectively by a factor of 18 (rate 1.3). […] Galactose should therefore be a key sugar source in the diet of cancer patients.

[4] = test system: cancer cells (in cancer tissue sections); details: sugar as food substrate; cited from earlier work

| Compound | glycemic index (GI) [1] | extent digested directly by the human body [2] | remaining fraction broken down by the intestinal flora [2] [%] | factor by which fermentation progresses less effectively than with glucose [3] | rate of fermentation metabolism [4] |
| --- | --- | --- | --- | --- | --- |
| O=C[C@H](O)[C@H](O)[C@H](O)CO [Ribose] | negative | – | – | – | – |
| O=C(CO)[C@@H](O)[C@@H](O)[C@H](O)CO [Tagatose] | 3 | approximately 20% | 80 | – | – |
| O=C(CO)[C@@H](O)[C@H](O)[C@H](O)CO [fructose, reference compound] | – | – | – | 7 | 3.3 consumed units per unit of time |
| O=C[C@H](O)[C@@H](O)[C@@H](O)[C@H](O)CO [galactose] | 20 | – | – | 18 | 1.3 consumed units per unit of time |
| O=C[C@H](O)[C@@H](O)[C@H](O)[C@H](O)CO [glucose, reference compound] | 100 | – | – | – | 23.9 consumed units per unit of time |
| OC[C@H]1O[C@H](OC[C@H]2OC(O)(CO)[C@@H](O)[C@@H]2O)[C@H](O)[C@@H](O)[C@@H]1O (some centres unmarked) [isomaltulose] | 32 | – | – | – | – |
| OC[C@H]1O[C@@](CO)(O[C@H]2O[C@H](CO)[C@@H](O)[C@H](O)[C@H]2O)[C@@H](O)[C@@H]1O [sucrose, reference compound] | 65 | – | – | – | – |
| OC[C@H]1O[C@H](O[C@H]2O[C@H](CO)[C@@H](O)[C@H](O)[C@H]2O)[C@H](O)[C@@H](O)[C@@H]1O [trehalose] | ~32 | – | – | – | – |
